The values below are quoted from earlier work in patent US8071763B2, “Methods for treatment of nocturia” (Daiichi Sankyo Company, Limited, priority 2002, dated 2011).

Like-named read-outs stand apart in the source and are kept apart here.

The subject of data set [1] is nocturia. As to conditions: 100 mg suppository, open trial, 15 patients; cited from earlier work.
In data set [2] the test system is nocturia. The conditions noted are these: one patient; suppository administered as antipyretics; cited from earlier work.

Take `COc1ccc2c(c1)c(CC(=O)O)c(C)n2C(=O)c1ccc(Cl)cc1` [indomethacin]: the Effect on nocturia result was “improved nocturia in all 15 patients” in the data set on nocturia [1] and “nocturia was improved” in the data set with nocturia [2].
